Experimental data taken from ChEMBL document CHEMBL1140971, “Synthesis of new 4-pyrrol-1-yl benzoic acid hydrazide analogs and some derived oxadiazole, triazole and pyrrole ring systems: a novel class of potential antibacterial and antitubercular agents” (2008).
Converted amounts (≈) assume the structure as drawn.

Tests used:
Format in all cases: functional
Klebsiella pneumoniae = test: Antibacterial activity against Klebsiella pneumoniae ATCC 10031 after 18 hrs by broth microdilution method; conditions: ATCC 10031, 18 h
Enterococcus faecalis = test: Antibacterial activity against Streptococcus faecalis ATCC 14506 after 18 hrs by broth microdilution method; conditions: ATCC 14506, 18 h
Escherichia coli = test: Antibacterial activity against Escherichia coli ATCC 10536 after 18 hrs by broth microdilution method; conditions: ATCC 10536, 18 h
Bacillus subtilis = test: Antibacterial activity against Bacillus subtilis ATCC 60511 after 18 hrs by broth microdilution method; conditions: ATCC 60511, 18 h
[1] = tested on: Mycobacterium tuberculosis; test: Antitubercular activity against Mycobacterium tuberculosis H37Rv after 21 days by broth dilution assay; conditions: 504 h
Pseudomonas aeruginosa = test: Antibacterial activity against Pseudomonas aeruginosa ATCC 10145 after 18 hrs by broth microdilution method; conditions: ATCC 10145, 18 h
Staphylococcus aureus = test: Antibacterial activity against Staphylococcus aureus ATCC 11632 after 18 hrs by broth microdilution method; conditions: ATCC 11632, 18 h

SMILES	MIC (Klebsiella pneumoniae) [mg/L]	MIC (Enterococcus faecalis) [mg/L]	MIC (Escherichia coli) [mg/L]	MIC (Bacillus subtilis) [mg/L]	MIC [1] [mg/L]	MIC (Pseudomonas aeruginosa) [mg/L]	MIC (Staphylococcus aureus) [mg/L]
CC(C)=NNC(=O)c1ccc(-n2cccc2)cc1	250 (≈ 1040 µM)	125 (≈ 518 µM)	125 (≈ 518 µM)	62.5 (≈ 259 µM)	62.5 (≈ 259 µM)	62.5 (≈ 259 µM)	250 (≈ 1040 µM)
O=C(N/N=C/c1cccc([N+](=O)[O-])c1)c1ccc(-n2cccc2)cc1	500 (≈ 1500 µM)	500 (≈ 1500 µM)	500 (≈ 1500 µM)	250 (≈ 748 µM)	62.5 (≈ 187 µM)	62.5 (≈ 187 µM)	500 (≈ 1500 µM)
CC(=O)N1N=C(c2ccc(-n3cccc3)cc2)OC1c1ccccc1 (stereo not drawn)	62.5 (≈ 189 µM)	125 (≈ 377 µM)	125 (≈ 377 µM)	62.5 (≈ 189 µM)	31.2 (≈ 94.3 µM)	62.5 (≈ 189 µM)	250 (≈ 754 µM)
CCn1cc(C(=O)O)c(=O)c2cc(F)c(N3CCNCC3)cc21 [NORFLOXACIN]	≤ 1	< 5	≤ 1	≤ 1		> 5	< 5
CC(=O)N1N=C(c2ccc(-n3cccc3)cc2)OC1c1c(Cl)cccc1Cl (stereo not drawn)	62.5 (≈ 156 µM)	62.5 (≈ 156 µM)	62.5 (≈ 156 µM)	31.2 (≈ 78.1 µM)	31.2 (≈ 78.1 µM)	31.2 (≈ 78.1 µM)	62.5 (≈ 156 µM)
CC(=O)NNC(=O)c1ccc(-n2cccc2)cc1	125 (≈ 514 µM)	250 (≈ 1030 µM)	500 (≈ 2060 µM)	62.5 (≈ 257 µM)	62.5 (≈ 257 µM)	62.5 (≈ 257 µM)	500 (≈ 2060 µM)
O=C(N/N=C/c1ccc(O)cc1)c1ccc(-n2cccc2)cc1	125 (≈ 409 µM)	125 (≈ 409 µM)	62.5 (≈ 205 µM)	62.5 (≈ 205 µM)	31.2 (≈ 102 µM)	62.5 (≈ 205 µM)	125 (≈ 409 µM)
NNC(=O)c1ccncc1 [ISONIAZID]					0.25 (≈ 1.82 µM)		
Nn1c(-c2ccc(-n3cccc3)cc2)n[nH]c1=S	125 (≈ 486 µM)	250 (≈ 972 µM)	500 (≈ 1940 µM)	125 (≈ 486 µM)	62.5 (≈ 243 µM)	125 (≈ 486 µM)	500 (≈ 1940 µM)
Cc1ccc(C)n1NC(=O)c1ccc(-n2cccc2)cc1	250 (≈ 895 µM)	125 (≈ 447 µM)	125 (≈ 447 µM)	62.5 (≈ 224 µM)	31.2 (≈ 112 µM)	62.5 (≈ 224 µM)	250 (≈ 895 µM)
O=C(O)c1cn(C2CC2)c2cc(N3CCNCC3)c(F)cc2c1=O [CIPROFLOXACIN]	≤ 1	< 5	≤ 1	≤ 1		> 5	< 5
Sc1nnc(-c2ccc(-n3cccc3)cc2)o1	125 (≈ 514 µM)	31.2 (≈ 128 µM)	31.2 (≈ 128 µM)	8 (≈ 32.9 µM)	16 (≈ 65.8 µM)	31.2 (≈ 128 µM)	250 (≈ 1030 µM)
O=C(N/N=C/c1ccccc1)c1ccc(-n2cccc2)cc1	125 (≈ 432 µM)	250 (≈ 864 µM)	125 (≈ 432 µM)	125 (≈ 432 µM)	125 (≈ 432 µM)	125 (≈ 432 µM)	250 (≈ 864 µM)
O=C(NN=C(c1ccccc1)c1ccccc1)c1ccc(-n2cccc2)cc1	125 (≈ 342 µM)	250 (≈ 684 µM)	125 (≈ 342 µM)	62.5 (≈ 171 µM)	62.5 (≈ 171 µM)	62.5 (≈ 171 µM)	500 (≈ 1370 µM)
C/C(=N\NC(=O)c1ccc(-n2cccc2)cc1)c1ccccc1	125 (≈ 412 µM)	125 (≈ 412 µM)	125 (≈ 412 µM)	62.5 (≈ 206 µM)	62.5 (≈ 206 µM)	62.5 (≈ 206 µM)	250 (≈ 824 µM)
NNC(=O)c1ccc(-n2cccc2)cc1	125 (≈ 621 µM)	31.2 (≈ 155 µM)	125 (≈ 621 µM)	8 (≈ 39.8 µM)	125 (≈ 621 µM)	62.5 (≈ 311 µM)	250 (≈ 1240 µM)
O=C(N/N=C/c1c(Cl)cccc1Cl)c1ccc(-n2cccc2)cc1	125 (≈ 349 µM)	125 (≈ 349 µM)	62.5 (≈ 174 µM)	62.5 (≈ 174 µM)	31.2 (≈ 87.2 µM)	62.5 (≈ 174 µM)	125 (≈ 349 µM)
CN(C)c1ccc(/C=N/NC(=O)c2ccc(-n3cccc3)cc2)cc1	125 (≈ 376 µM)	125 (≈ 376 µM)	250 (≈ 752 µM)	125 (≈ 376 µM)	62.5 (≈ 188 µM)	125 (≈ 376 µM)	250 (≈ 752 µM)
